Laboratory results: US7674881B2, “Convergent synthesis of proteins by kinetically controlled ligation” (The University of Chicago, priority 2005, dated 2010)
Read-outs that look alike come from different tables or passages of the source.

Key:
[1] = Solubility of thiol catalysts at pH 7 (Table 3)
[2] = pKa of thiol catalysts (Table 3)

SMILES	pKa (physchem)	Solubility at pH 7	Solubility at pH 7 [1]	pKa [2]
Sc1ccccn1 [2-mercaptopyridine]	-1.07	Soluble		
Sc1ccc(Cl)cc1 [4-chlorothiophenol]			Sparingly soluble	6.11
Oc1ccc(S)cc1 [4-mercaptophenol]	6.8	Soluble		
Nc1ccc(S)cc1 [4-aminothiophenol]	8.86	Very soluble		
Oc1cccc(S)c1 [3-mercaptophenol]	6.5	Very soluble		
SCc1ccccc1 [Benzyl mercaptan]			Sparingly soluble	9.67
Sc1ccccc1 [Thiophenol]		Slightly soluble		

Now from value to compound, other results behind:

pKa (physchem)	Solubility at pH 7	SMILES	Solubility at pH 7 [1]	pKa [2]
9.08	Very soluble	O=S(=O)([O-])CCS.[Na+] [MESNA, sodium 2-mercaptoethanesulfonate]		
5.78	Very soluble	O=C(O)c1cccc(S)c1 [3-mercaptobenzoic acid]		
6.75	Slightly soluble	COc1ccc(S)cc1 [4-methoxythiophenol]		
	Soluble	O=[N+]([O-])c1ccc(S)cc1 [4-nitrothiophenol]		
	Very soluble	O=C(O)Cc1ccc(S)cc1 [4-mercaptophenylacetic acid]		
6.8	Sparingly soluble	Cc1ccc(S)cc1 [4-methylthiophenol]		
2.03	Very soluble	Sc1ncccn1 [2-mercaptopyrimidine]		
